Test results published in ChEMBL document CHEMBL1131704, “trans-2,6-,3,6- and 4,6-diaza-5,6,6a,7,8,12b-hexahydro-benzo[c]phenanthrene-10,11- diols as dopamine agonists” (Bioorg Med Chem Lett, 1999).

Legend:
D(1A) dopamine receptor [1] = biological target: T1, D(1A) dopamine receptor (Homo sapiens, UniProt P21728); assay: Potency in adenylate cyclase functional assay against Dopamine receptor D1
D(2) dopamine receptor = D(2) dopamine receptor (Homo sapiens, UniProt P14416); assay: Binding affinity to human Dopamine receptor D2 by using radioligand [3H]spiperone in LTK cells; format: cell-based
D(1A) dopamine receptor [2] = biological target: T1, D(1A) dopamine receptor; assay: Intrinsic activity relative against Dopamine receptor D1.; format: functional
D(1A) dopamine receptor [3] = biological target: T1, D(1A) dopamine receptor; assay: Binding affinity to Dopamine receptor D1 by using radioligand [125I]SCH-23982 in HEK cells; format: cell-based, HEK293
[4] = biological target: Dopamine D1 and D2 receptor (Homo sapiens) (UniProt P14416+P21728); assay: Ratio of Ki for human dopamine-2(D-2) and dopamine-1(D-1) receptors; format: protein assay
Chain of Dopamine D1 and D2 receptor (Homo sapiens) (P14416 whole entry, looked up): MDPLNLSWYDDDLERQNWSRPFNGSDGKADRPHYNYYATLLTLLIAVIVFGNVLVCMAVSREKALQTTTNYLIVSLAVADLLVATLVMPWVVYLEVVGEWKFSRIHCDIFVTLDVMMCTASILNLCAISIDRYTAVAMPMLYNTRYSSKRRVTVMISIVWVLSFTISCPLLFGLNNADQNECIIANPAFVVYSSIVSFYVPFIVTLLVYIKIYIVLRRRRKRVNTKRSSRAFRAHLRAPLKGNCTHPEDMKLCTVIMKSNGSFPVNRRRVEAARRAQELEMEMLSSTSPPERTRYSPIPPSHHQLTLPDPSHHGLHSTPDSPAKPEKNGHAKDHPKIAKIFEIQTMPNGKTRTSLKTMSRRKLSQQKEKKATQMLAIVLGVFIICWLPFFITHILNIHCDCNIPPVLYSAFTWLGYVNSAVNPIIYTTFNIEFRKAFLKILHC
Chain of Dopamine D1 and D2 receptor (Homo sapiens) (P21728 whole entry, looked up): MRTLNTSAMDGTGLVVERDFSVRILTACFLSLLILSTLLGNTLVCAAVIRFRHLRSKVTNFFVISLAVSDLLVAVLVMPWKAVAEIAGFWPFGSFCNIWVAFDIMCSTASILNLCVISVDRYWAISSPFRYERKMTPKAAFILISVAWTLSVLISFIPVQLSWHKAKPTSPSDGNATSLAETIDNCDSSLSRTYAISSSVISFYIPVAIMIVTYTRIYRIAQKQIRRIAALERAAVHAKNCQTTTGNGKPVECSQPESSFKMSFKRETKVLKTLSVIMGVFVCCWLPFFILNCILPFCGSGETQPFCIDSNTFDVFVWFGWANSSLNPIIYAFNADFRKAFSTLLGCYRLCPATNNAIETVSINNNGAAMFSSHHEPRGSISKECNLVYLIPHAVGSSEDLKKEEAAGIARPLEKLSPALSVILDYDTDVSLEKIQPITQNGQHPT

T1 sequence (P21728 whole entry): as the sequence (P21728 whole entry, looked up) above
Chain of D(2) dopamine receptor (P14416 whole entry): as the sequence (P14416 whole entry, looked up) above

SMILES: Cc1ccc2c(n1)CN[C@@H]1CCc3cc(O)c(O)cc3[C@@H]21
- EC50 (D(1A) dopamine receptor [1]): 23 nM
- Ki (D(2) dopamine receptor): 1400 nM
- Intrinsic activity (D(1A) dopamine receptor [2]): 121%
- Ki (D(1A) dopamine receptor [3]): 140 nM
- Ratio [4]: 10

SMILES: Cc1cnc2c(c1)[C@@H]1c3cc(O)c(O)cc3CC[C@H]1NC2
- EC50 (D(1A) dopamine receptor [1]): 110 nM
- Ki (D(2) dopamine receptor): 12000 nM
- Intrinsic activity (D(1A) dopamine receptor [2]): 156%
- Ki (D(1A) dopamine receptor [3]): 240 nM
- Ratio [4]: 50

SMILES: Oc1cc2c(cc1O)[C@H]1c3cncc(F)c3CN[C@@H]1CC2
- EC50 (D(1A) dopamine receptor [1]): 800 nM
- Ki (D(2) dopamine receptor): 890 nM
- Intrinsic activity (D(1A) dopamine receptor [2]): 126%
- Ki (D(1A) dopamine receptor [3]): 390 nM
- Ratio [4]: 2

SMILES: Cc1cncc2c1CN[C@@H]1CCc3cc(O)c(O)cc3[C@@H]21
- EC50 (D(1A) dopamine receptor [1]): 230 nM
- Ki (D(2) dopamine receptor): 400 nM
- Intrinsic activity (D(1A) dopamine receptor [2]): 75%
- Ki (D(1A) dopamine receptor [3]): 1100 nM
- Ratio [4]: 0.36

SMILES: Oc1cc2c(cc1O)[C@H]1c3cccnc3CN[C@@H]1CC2
- EC50 (D(1A) dopamine receptor [1]): 6.7 nM
- Ki (D(2) dopamine receptor): 2500 nM
- Intrinsic activity (D(1A) dopamine receptor [2]): 125%
- Ki (D(1A) dopamine receptor [3]): 65 nM
- Ratio [4]: 38

SMILES: CCCCc1cnc2c(c1)[C@@H]1c3cc(O)c(O)cc3CC[C@H]1NC2
- EC50 (D(1A) dopamine receptor [1]): 180 nM
- Ki (D(2) dopamine receptor): 1900 nM
- Intrinsic activity (D(1A) dopamine receptor [2]): 118%
- Ki (D(1A) dopamine receptor [3]): 890 nM
- Ratio [4]: 2

SMILES: CCCc1cc2c(s1)CN[C@@H]1CCc3cc(O)c(O)cc3[C@@H]21
- Intrinsic activity (D(1A) dopamine receptor [2]): 125%
- Ratio [4]: 14

SMILES: Oc1cc2c(cc1O)[C@H]1c3ccccc3CN[C@@H]1CC2
- Intrinsic activity (D(1A) dopamine receptor [2]): 121%

SMILES: COc1ccc2c(n1)CN[C@@H]1CCc3cc(O)c(O)cc3[C@@H]21
- EC50 (D(1A) dopamine receptor [1]): 8.8 nM
- Ki (D(2) dopamine receptor): 520 nM
- Intrinsic activity (D(1A) dopamine receptor [2]): 114%
- Ki (D(1A) dopamine receptor [3]): 49 nM
- Ratio [4]: 11

SMILES: Oc1cc2c(cc1O)[C@H]1c3ccc(F)nc3CN[C@@H]1CC2
- EC50 (D(1A) dopamine receptor [1]): 18 nM
- Ki (D(2) dopamine receptor): 2200 nM
- Intrinsic activity (D(1A) dopamine receptor [2]): 141%
- Ki (D(1A) dopamine receptor [3]): 180 nM
- Ratio [4]: 12

SMILES: CCCc1ccc2c(n1)CN[C@@H]1CCc3cc(O)c(O)cc3[C@@H]21
- EC50 (D(1A) dopamine receptor [1]): 8.6 nM
- Ki (D(2) dopamine receptor): 450 nM
- Intrinsic activity (D(1A) dopamine receptor [2]): 116%
- Ki (D(1A) dopamine receptor [3]): 45 nM
- Ratio [4]: 10

SMILES: Oc1cc2c(cc1O)[C@H]1c3cnccc3CN[C@@H]1CC2
- EC50 (D(1A) dopamine receptor [1]): 320 nM
- Ki (D(2) dopamine receptor): 1300 nM
- Intrinsic activity (D(1A) dopamine receptor [2]): 81%
- Ki (D(1A) dopamine receptor [3]): 1100 nM
- Ratio [4]: 1

SMILES: Oc1cc2c(cc1O)[C@H]1c3ccncc3CN[C@@H]1CC2
- EC50 (D(1A) dopamine receptor [1]): 38 nM
- Ki (D(2) dopamine receptor): 4400 nM
- Intrinsic activity (D(1A) dopamine receptor [2]): 131%
- Ki (D(1A) dopamine receptor [3]): 140 nM
- Ratio [4]: 31

SMILES: Oc1cc2c(cc1O)[C@H]1c3cc4c(nc3CN[C@@H]1CC2)CCCC4
- EC50 (D(1A) dopamine receptor [1]): 63 nM
- Ki (D(2) dopamine receptor): 3600 nM
- Intrinsic activity (D(1A) dopamine receptor [2]): 136%
- Ki (D(1A) dopamine receptor [3]): 560 nM
- Ratio [4]: 6

SMILES: Cc1cc2c(nc1C)CN[C@@H]1CCc3cc(O)c(O)cc3[C@@H]21
- EC50 (D(1A) dopamine receptor [1]): 120 nM
- Ki (D(2) dopamine receptor): 9100 nM
- Intrinsic activity (D(1A) dopamine receptor [2]): 134%
- Ki (D(1A) dopamine receptor [3]): 280 nM
- Ratio [4]: 33
